{"source": "patent US20260008048A1", "about": "“POLYSILOXANE-BASED DEVICES WITH REDUCED DRUG ABSORPTION CHARACTERISTICS” (THE JOHNS HOPKINS UNIVERSITY, priority 2022, published 2026)", "key": {"[1]": {"assay": "1-week drug absorption by PDMS / PDMS-PEG block copolymer plugs (UV-Vis)", "format": "physicochemical", "conditions": "100 μM drug, 37° C.; for 1-week drug absorption with block copolymer versus PDMS: 1% and 2% BCP; for reduction of drug absorption by PDMS-PEG block copolymer additives: compared to PDMS", "procedure": "Plug size was chosen to be similar to many microfluidic devices. After 1 week, the drug concentration was measured using UV-Vis spectroscopy, the area under the curve (AUC) was calculated, and each value was compared to drug standards to determine the percent drug loss (FIG. 2A).\nPDMS-PEG Fabrication: PDMS was prepared as previously described in Scott, L. E., Mair, D. B., Narang, J. D., Feleke, K. & Lemmon, C. A. Fibronectin fibrillogenesis facilitates mechano-dependent cell spreading, force generation, and nuclear size in human embryonic fibroblasts. […] PDMS base was mixed with PDMS crosslinker at a […] for 5 minutes and was then degassed in a desiccator for 30 minutes. […] 8 mm plugs were taken using a biopsy punch and used in downstream experiments. This height/diameter was chosen to provide a surface to volume ratio of ˜0.2/mm, similar to that found in microfluidic devices.\nDrug absorption experimental setup: Samples were added to glass vials. A 1.5 mL volume of 100 μM pharmaceutical solution was added, and the samples were fully submerged in the solution. […] Experimental samples were compared to controls, in which drug was incubated for one week without a PDMS sample. The mean of the controls was taken as the total drug concentration without absorption, and the percent drug loss was calculated as\nUV-Vis: Following experimental absorption, 2 μL samples were measured (Nanodrop 2000, ThermoFisher Scientific). Measurements were taken in triplicate for each sample to decrease noise. […] The area under the curve was used to calculate the precent drug loss, compared to the AUC of the drug standards. Sample size equals three, with three independent measurements per sample."}, "[2]": {"assay": "Drug absorption after drug pretreatment of PDMS / PDMS-PEG samples", "format": "physicochemical", "conditions": "24 hour pretreatment", "procedure": "We pretreated with 200 μM and 1 mM concentrations and 1 week of absorption was measured (FIG. 4A). […] For these experiments, we utilized a 24 hour pretreatment step.\nDrug Pretreatment: PDMS, 1% block copolymer, and 2% block copolymer samples were prepared as mentioned above. […] Pretreated samples were then transferred to a fresh 100 μM drug solution for one week of absorption, and absorption was assessed as described."}, "[3]": {"conditions": "cited from earlier work"}, "[4]": {"conditions": "cited from earlier work", "remark": "listed apart in the source"}, "[5]": {"assay": "Drug absorption after drug pretreatment of PDMS / PDMS-PEG samples", "format": "physicochemical", "conditions": "1 week pretreatment, 100 μM"}, "[6]": {"tested_on": "engineered heart tissue (EHT)", "assay": "Engineered heart tissue (Mantarray) twitch force dose response", "text": "We utilized the commercially available Mantarray (Curi Bio) engineered heart tissue (EHT) platform to perform these screens. In this platform, the EHT self assembles between two posts, one soft and bendable, and the other stiff and immovable (FIG. 6B). The soft post has an embedded magnet, and deflection of the post due to EHT contraction results in changes in magnetic flux. The tissues can be placed over magnetic sensor arrays in the Mantarray system to measure this change in flux and calculate the twitch forces and kinetics.\nAfter drug was allowed to absorb for 1 week, dose response curves were measured for each condition. […]\nEngineered Heart Tissue Fabrication: The Mantarray (Curi Bio) is a system designed for reproducible fabrication and functional measurements of EHTs in a 24-well plate format. […] Cardiomyocytes and HS27A stromal cells (ATCC) were lifted using 0.05% trypsin+EDTA, counted, and resuspended at 8.3 million cells/mL and 2.5 million cells/mL, respectively. […]\nEHT Dosing and Contractile Measurements: EHTs were fabricated as described above and paced to measure average force output. […] EHTs were paced at 5.0 V 1 Hz with a pulse duration of 10 milliseconds and average force output readings were recorded using a Mantarray for 60 seconds to give an initial mean force average. […] Percent reduction in twitch force following exposure to drug was then calculated using the equation"}, "[7]": {"conditions": "200 μM and 1 mM, PDMS, 1% and 2% BCP overall"}}, "note": "Entries after “also recorded” stand apart in the source; their conditions may differ.", "data": [{"smiles": "CC(C)COCC(CN(Cc1ccccc1)c1ccccc1)N1CCCC1", "note": "(stereo not shown) [Bepridil]", "values": [{"measurement": "1-week drug absorption with block copolymer versus PDMS", "setting": "[1]", "result": "no significant improvement"}, {"measurement": "effect of pretreating with higher dosages on drug absorption", "setting": "[2]; [7]", "result": "significant reductions"}, {"measurement": "effect of pretreating with higher dosages on drug absorption", "setting": "[2]; 1 mM, 2% BCP", "result": "significantly decreases absorption"}, {"measurement": "effect of pretreating with higher dosages on drug absorption", "setting": "[2]; increasing dosage, 1% BCP", "result": "a decrease, followed by an increase in drug absorption; also recorded: increased"}, {"measurement": "effect of pretreating with higher dosages on drug absorption", "setting": "[2]; increasing dosage, PDMS", "result": "a decrease, followed by an increase in drug absorption; also recorded: increased"}, {"measurement": "logP", "setting": "[3]", "result": 5.2}, {"measurement": "Solubility in H2O", "setting": "[4]", "result": 0.05655, "unit": "mg/mL"}, {"measurement": "effect of pretreating with experimental dosages for 1 week on drug absorption", "setting": "[5]; PDMS only", "result": "significantly decreases bepridil absorption"}]}, {"smiles": "COCCc1ccc(OCC(O)CNC(C)C)cc1", "note": "(stereo not shown) [Metoprolol Succinate]", "values": [{"measurement": "1-week drug absorption with block copolymer versus PDMS", "setting": "[1]", "result": "significantly reduced"}, {"measurement": "reduction of drug absorption by PDMS-PEG block copolymer additives", "setting": "[1]", "result": 97.2, "unit": "%"}, {"measurement": "effect of pretreating with higher dosages on drug absorption", "setting": "[2]; [7]", "result": "significant reductions"}, {"measurement": "effect of pretreating with higher dosages on drug absorption", "setting": "[2]; 200 μM, 2% BCP", "result": "significant increase in absorption; also recorded: increased"}, {"measurement": "effect of pretreating with higher dosages on drug absorption", "setting": "[2]; 1 mM, PDMS", "result": "increased"}, {"measurement": "effect of pretreating with higher dosages on drug absorption", "setting": "[2]; increasing dosage, 1% BCP", "result": "no significant change in absorption"}, {"measurement": "effect of pretreating with higher dosages on drug absorption", "setting": "[2]; increasing dosage, PDMS", "result": "biphasic drug absorption pattern"}, {"measurement": "Solubility in H2O", "setting": "[4]", "result": 1000, "unit": "mg/mL"}, {"measurement": "effect of pretreating with experimental dosages for 1 week on drug absorption", "setting": "[5]; PDMS and PDMS-PEG BCP samples", "result": "no significant effect"}]}, {"smiles": "CC(C)(C)c1ccc(C(O)CCCN2CCC(C(O)(c3ccccc3)c3ccccc3)CC2)cc1", "note": "(stereo not shown) [Terfenadine]", "values": [{"measurement": "1-week drug absorption with block copolymer versus PDMS", "setting": "[1]", "result": "significantly reduced"}, {"measurement": "reduction of drug absorption by PDMS-PEG block copolymer additives", "setting": "[1]", "result": 61.8, "unit": "%"}, {"measurement": "effect of pretreating with higher dosages on drug absorption", "setting": "[2]; [7]", "result": "further decrease terfenadine absorption; also recorded: significant reductions"}, {"measurement": "logP", "setting": "[3]", "result": 6.6}, {"measurement": "Solubility in H2O", "setting": "[4]", "result": 0.0963, "unit": "mg/mL"}, {"measurement": "effect of pretreating with experimental dosages for 1 week on drug absorption", "setting": "[5]; PDMS and PDMS-PEG BCP samples", "result": "significantly decreases terfenadine absorption"}]}, {"smiles": "COc1ccc(CCN(C)CCCC(C#N)(c2ccc(OC)c(OC)c2)C(C)C)cc1OC", "note": "(stereo not shown) [Verapamil]", "values": [{"measurement": "IC50 of drug incubated with APC compared to control", "setting": "[6]; drug incubated 1 week at 37° C. with APC (2% block copolymer-1 mM)", "result": "not significantly different from control"}, {"measurement": "IC50 of drug incubated with PDMS compared to control and APC", "setting": "[6]; drug incubated 1 week at 37° C. with PDMS", "result": "significantly reduce the IC50 value"}]}]}
